Common to all, as to type: cell-based
Assay [1] concerns Primary human colonic epithelial cells (HCoEpiC). The assay can be described thus: Long-term culture of primary human colonic epithelial cells in the presence of low molecular weight compounds (cell number, morphology). The settings on record: for cell morphology during long-term culture: 10 μM Y-27632 solely added, after 72 days of culture; for continued growth / long-term culture of colorectal epithelial cells (number of cells): complete medium with 10 μM Y-27632 solely added, culture continued for 72 days, compared with A, C, YA, YC groups. Here is the method: Regarding Primary human colonic epithelial cells (HCoEpiC), Lot No. 17030 was purchased from ScienCell Research Laboratories, Inc. (SCR, Carlsbad, CA, United States) and used. A complete medium containing 5 mL of a colonic epithelial cell growth supplement (CoEpiCGS, SCR) and 5 mL of penicillin/streptomycin (P/S, SCR) added to 500 mL of a colonic epithelial cell medium (CoEpiCM, SCR) as a basal medium was used as a medium. To investigate the effect on release of exosomes, 10 μM Y-27632 (ROCK inhibitor) (Wako), 0.5 μM A-83-01 (ALK5/7/4 selective inhibitor) (Wako), and 3 μM CHIR99021 (GSK-3 inhibitor) (Axon Medchem, Reston, VA) were used. Cells were completely dissolved in a water bath at 37° C. and seeded on 10 mL of the complete medium in a 10-cm dish coated with poly-L-lysine (poly-[…] 2 μg/cm^2, SCR) at 2.5×10^5 cells/dish. On the following day, the medium was replaced with a fresh complete medium. The medium was replaced with a complete medium every 3 or 4 days until 70% confluency was reached and then every other day while 70% to 90% confluency was reached. Cells reaching 90% confluency were removed using a 0.05% trypsin/EDTA solution (T/E, SCR) and seeded onto a 12-well plate (Fisher-brand 12-well tissue culture plate with a flat bottom) at 2×10^4 cells/well. Twenty four hours later, the medium was replaced with a complete medium containing or not containing Y-27632 (10 μM), and thereafter the medium was replaced every other day until 90% confluency was reached. When 90% confluency was reached, the cells were subcultured again, and the above-described procedures were continued for 72 days.

For assay [2] the test system is unchanged. The assay can be described thus: Particle diameter and particle number in culture supernatant by NanoSight. Here is the method: (§1) Cells were completely dissolved in a water bath at 37° C. and seeded on 10 mL of the complete medium in a 10-cm dish coated with poly-L-lysine (poly-[…] 2 μg/cm^2, SCR) at 2.5×10^5 cells/dish. On the following day, the medium was replaced with a fresh complete medium. The medium was replaced with a complete medium every 3 or 4 days until 70% confluency was reached and then every other day while 70% to 90% confluency was reached. Cells reaching 90% confluency were removed using a 0.05% trypsin/EDTA solution (T/E, SCR) and seeded onto a 12-well plate (Fisher-brand 12-well tissue culture plate with a flat bottom) at 2×10^4 cells/well. Twenty four hours later, the medium was replaced with a complete medium containing or not containing Y-27632 (10 μM), and thereafter the medium was replaced every other day until 90% confluency was reached. When 90% confluency was reached, the cells were subcultured again, and the above-described procedures were continued for 72 days. The culture supernatant in the culture was recovered, and the particle diameter and the particle number were measured using a nanoparticle analysis system NanoSight (NS300, Malvern Panalytical Ltd.). Then, the signal intensities of exosome markers, CD9 and CD63, in the recovered culture supernatant were measured by an ExoScreen assay.

Assay [3] shares this test system. Nature of the assay: ExoScreen assay of exosome markers CD9 and CD63 in culture supernatant. Here is the method: as §1

The structures appear in SMILES notation. Entries after “also recorded” stand apart in the source; their conditions may differ.

For `C[C@@H](N)[C@H]1CC[C@H](C(=O)Nc2ccncc2)CC1` [Y-27632, (1R,4r)-4-((R)-1-aminoethyl)-N-(pyridin-4-yl)cyclohexanecarboxamide], the “cell morphology during long-term culture” value is “the morphology was unchanged” in assay [1] and “no morphological change was observed” in assay [1] (listed as Y). Also, the “continued growth / long-term culture of colorectal epithelial cells (number of cells)” value in assay [1] is “continued growth over the longest period; also recorded: allowed long-term culture of colorectal epithelial cells”; in assay [1] (listed as Y), “Long-term culture was enabled”. Moreover, the “particle number concentration in the medium” value in assay [2] (Day 72 of culture, presence vs absence of Y-27632) was “higher in the absence of Y-27632”. Also, in assay [2] (culture supernatants at Day 28, Day 35, Day 72, Y(+) vs Y(−)), the “particle diameter of released vesicles” value was “unchanged”. Besides, in assay [3] (culture supernatant of HCoEpiC cultured in the presence vs absence of Y-27632), the “exosomes detected using CD9 and CD63 markers (signal intensity)” value is on record as “more exosomes were detected”. The “decrease of CD9(+) exosomes after repeated passages” value in assay [3] (in the presence of Y-27632, fraction decreased) is listed as “about ⅓”.
